Tests used:
[1] = system: Salmonella typhimurium; assay: Antimutagenic activity in Salmonella Typhimurium T-98 assessed as inhibition of acetylaminofluorene-induced mutation at 37.5 ug/plate; assay type: functional, Salmonella enterica subsp. enterica serovar Typhimurium
[2] = system: Salmonella typhimurium; assay: Antimutagenic activity in Salmonella Typhimurium T-100 assessed as inhibition of ethyl methanesulfonate-induced mutation at 300 ug/plate; assay type: functional, Salmonella enterica subsp. enterica serovar Typhimurium
[3] = system: Salmonella typhimurium; assay: Antimutagenic activity in Salmonella Typhimurium T-98 assessed as inhibition of 2-aminoanthracene-induced mutation at 75 ug/plate; assay type: functional, Salmonella enterica subsp. enterica serovar Typhimurium
[4] = system: Salmonella typhimurium; assay: Toxicity to Salmonella Typhimurium at 0.3 to 0.075 mg/plate; assay type: organism-based, Salmonella enterica subsp. enterica serovar Typhimurium; conditions: in vivo
[5] = system: Salmonella typhimurium; assay: Antimutagenic activity in Salmonella Typhimurium T-98 assessed as inhibition of acetylaminofluorene-induced mutation at 75 ug/plate; assay type: functional, Salmonella enterica subsp. enterica serovar Typhimurium
[6] = system: Salmonella typhimurium; assay: Antimutagenic activity in Salmonella Typhimurium T-98 assessed as inhibition of acetylaminofluorene-induced mutation at 300 ug/plate; assay type: functional, Salmonella enterica subsp. enterica serovar Typhimurium
[7] = system: Salmonella typhimurium; assay: Antimutagenic activity in Salmonella Typhimurium T-98 assessed as inhibition of acetylaminofluorene-induced mutation at 150 ug/plate; assay type: functional, Salmonella enterica subsp. enterica serovar Typhimurium
[8] = system: Salmonella typhimurium; assay: Antimutagenic activity in Salmonella Typhimurium T-98 assessed as inhibition of 2-aminoanthracene-induced mutation at 37.5 ug/plate; assay type: functional, Salmonella enterica subsp. enterica serovar Typhimurium
[9] = system: Salmonella typhimurium; assay: Antimutagenic activity in Salmonella Typhimurium T-98 assessed as inhibition of 2-aminoanthracene-induced mutation at 150 ug/plate; assay type: functional, Salmonella enterica subsp. enterica serovar Typhimurium
[10] = system: Salmonella typhimurium; assay: Antimutagenic activity in Salmonella Typhimurium T-100 assessed as inhibition of ethyl methanesulfonate-induced mutation at 37.5 ug/plate; assay type: functional, Salmonella enterica subsp. enterica serovar Typhimurium
[11] = system: Salmonella typhimurium; assay: Antimutagenic activity in Salmonella Typhimurium T-100 assessed as inhibition of ethyl methanesulfonate-induced mutation at 150 ug/plate; assay type: functional, Salmonella enterica subsp. enterica serovar Typhimurium
[12] = system: Salmonella typhimurium; assay: Antimutagenic activity in Salmonella Typhimurium assessed as inhibition of 2-aminoanthracene-induced mutation at 0.6 mg/plate; assay type: functional, Salmonella enterica subsp. enterica serovar Typhimurium
[13] = system: Salmonella typhimurium; assay: Antimutagenic activity in Salmonella Typhimurium assessed as inhibition of 2-aminoanthracene-induced mutation at 0.3 mg/plate; assay type: functional, Salmonella enterica subsp. enterica serovar Typhimurium
[14] = system: Salmonella typhimurium; assay: Antimutagenic activity in Salmonella Typhimurium T-100 assessed as inhibition of ethyl methanesulfonate-induced mutation at 75 ug/plate; assay type: functional, Salmonella enterica subsp. enterica serovar Typhimurium
[15] = system: Salmonella typhimurium; assay: Antimutagenic activity in Salmonella Typhimurium T-98 assessed as inhibition of 2-aminoanthracene-induced mutation at 300 ug/plate; assay type: functional, Salmonella enterica subsp. enterica serovar Typhimurium
[16] = system: Salmonella typhimurium; assay: Toxicity to Salmonella Typhimurium at 0.6 mg/plate; assay type: organism-based, Salmonella enterica subsp. enterica serovar Typhimurium; conditions: in vivo

Row | Structure (SMILES) | inhibition (INH) [1] | inhibition (INH) [2] | inhibition (INH) [3] | Activity [4] | inhibition (INH) [5] | inhibition (INH) [6] | inhibition (INH) [7] | inhibition (INH) [8] | inhibition (INH) [9] | inhibition (INH) [10] | inhibition (INH) [11] | inhibition (INH) [12] | inhibition (INH) [13] | inhibition (INH) [14] | inhibition (INH) [15] | Activity [16]
1 | C=CC(C)(C)c1cc(-c2coc3cc(O)cc(O)c3c2=O)c(O)cc1O [FREMONTIN] | 0% | 87% | 0% | Non-toxic | 0% | 0% | 0% | 65% | 24% | 58% | 81% | 92% | 92% | 90% | 93% | 
2 | C=CC(C)(C)c1cc(-c2coc3cc(O)cc(O)c3c2=O)c(O)c(CC=C(C)C)c1O [FREMONTONE] | 0% | 94% | 78% | Non-toxic | 3% | 70% | 27% | 89% | 17% | 63% | 86% |  |  | 81% | 93% | Non-toxic

Reference: ChEMBL document CHEMBL1147294, “Plant antimutagenic agents, 5. Isolation and structure of two new isoflavones, fremontin and fremontone from Psorothamnus fremontii” (J Nat Prod, 1989)
